Data set [1] addresses T1, recombinant human HDAC6 (Homo sapiens, UniProt Q9UBN7).
T1 sequence (Q9UBN7 1-1215): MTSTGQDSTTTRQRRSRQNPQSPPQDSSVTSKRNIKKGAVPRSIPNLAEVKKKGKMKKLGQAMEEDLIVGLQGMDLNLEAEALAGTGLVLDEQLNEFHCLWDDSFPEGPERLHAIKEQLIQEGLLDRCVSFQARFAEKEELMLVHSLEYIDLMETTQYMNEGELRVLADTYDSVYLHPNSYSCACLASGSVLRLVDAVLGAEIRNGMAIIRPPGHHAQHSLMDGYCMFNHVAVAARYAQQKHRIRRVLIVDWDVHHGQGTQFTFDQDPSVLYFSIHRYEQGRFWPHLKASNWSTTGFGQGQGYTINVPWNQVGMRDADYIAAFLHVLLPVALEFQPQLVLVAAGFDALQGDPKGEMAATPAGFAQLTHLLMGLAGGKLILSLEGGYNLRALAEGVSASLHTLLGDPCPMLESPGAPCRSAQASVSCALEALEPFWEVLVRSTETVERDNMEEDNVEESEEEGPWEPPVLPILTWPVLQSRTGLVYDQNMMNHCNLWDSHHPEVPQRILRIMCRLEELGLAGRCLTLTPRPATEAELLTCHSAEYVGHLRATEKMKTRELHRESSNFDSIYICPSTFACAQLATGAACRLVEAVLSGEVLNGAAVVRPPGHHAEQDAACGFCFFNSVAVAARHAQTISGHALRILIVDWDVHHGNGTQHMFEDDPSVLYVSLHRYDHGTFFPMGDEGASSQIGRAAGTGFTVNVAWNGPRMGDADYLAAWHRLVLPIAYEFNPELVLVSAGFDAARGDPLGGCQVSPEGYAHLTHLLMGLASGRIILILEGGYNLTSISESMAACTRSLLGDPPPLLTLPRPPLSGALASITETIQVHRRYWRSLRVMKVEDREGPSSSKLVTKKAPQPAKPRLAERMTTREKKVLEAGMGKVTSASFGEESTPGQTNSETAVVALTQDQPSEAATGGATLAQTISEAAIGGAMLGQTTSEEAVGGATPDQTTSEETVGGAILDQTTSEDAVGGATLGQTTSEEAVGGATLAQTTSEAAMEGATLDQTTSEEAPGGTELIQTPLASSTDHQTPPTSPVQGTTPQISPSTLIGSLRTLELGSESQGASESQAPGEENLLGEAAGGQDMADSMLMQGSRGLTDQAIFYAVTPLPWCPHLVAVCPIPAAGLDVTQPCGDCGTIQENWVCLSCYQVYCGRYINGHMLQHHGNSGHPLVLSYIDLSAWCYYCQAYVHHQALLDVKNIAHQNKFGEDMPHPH
Kind of data set: Enzymatic screening on recombinant human HDAC6. Type of data set: biochemical. Conditions: Table 2; read-out: HDAC6 IC50. In short, it runs like this:
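Recombinant human HDAC isoforms were incubated with compound at 30 °C for isoform-specific times. Fluor de Lys, Fluor de Lys-Green or trifluoroacetyl-lysine substrate in Tris-HCl pH 8 buffer with NaCl, Tween-20 and glycerol was then added, followed by reaction at 30 °C.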

Data set [2] in a line: Stability in rat plasma. Type of data set: in vitro ADME. Conditions: after 4 hours, 37° C. The procedure: In order to evaluate the stability to circulating enzymes, test compounds were incubated in human and rat plasma at 37° C. in a thermostated oscillating bath. Each test compound was incubated at μM (50 μM when the samples were analysed by UV/HPLC, 1 or 2 μM when the samples were analysed by LC-MS/MS) concentration for 0, 15, 30 min and 1, 2 and 4 hours. The reaction was stopped placing tubes on ice bath and adding acidified acetonitrile. After centrifugation for 10 minutes at 14000 rpm, an aliquot of the supernatant was diluted with water, filtered with 0.45 μm syringe filters and injected in HPLC-UV or in LC-MS/MS. The percentages of amount remaining at the various times of incubation with respect to initial amount were calculated. The half-life in plasma was also calculated.

Data set [3] is described as follows: Stability to Phase I metabolism in rat S9 liver fraction. Conditions: after 90 min, 37° C. It counts as in vitro ADME. The procedure: Test compounds were incubated in rat and human liver S9 fraction at 37° C. up to 90 minutes in order to evaluate their stability to Phase I metabolism by hepatic enzymes. […] The reaction was stopped placing samples on ice bath and adding acidified acetonitrile. After centrifugation (10 minutes at 14000 rpm) an aliquot of the supernatant was diluted water, filtered with 0.45 μm regenerated cellulose syringe filters and injected in HPLC-UV or in LC-MS/MS. The percentages of the amount remaining at the various incubation times with respect to the initial amount were calculated. The intrinsic clearance was also calculated.

Results on 17 compounds are retold here after patent publication US11351178B2, “Selective HDAC6 inhibitors” (ITALFARMACO S.P.A., priority 2017, dated 2022).

For the compound `O=C(NO)c1ccc(Sc2nnc(-c3c[nH]c4ccccc34)n2Cc2ccco2)cc1` [comp. 25, 4-[[4-(2-furylmethyl)-5-(1H-indol-3-yl)-1,2,4-triazol-3-yl]sulfanyl]benzenecarbohydroxamic acid;2,2,2-trifluoroacetic acid], in data set [1], the 50% inhibitory concentration (IC50) was 0.047 µM. The “residual percentage in rat plasma” value in data set [2] was 77%. The “residual percentage in rat S9 fraction” value in data set [3] was found to be 9%.

On to `CCn1c(Sc2ccc(C(=O)NO)cc2)nnc1-c1ccc(F)cc1` [comp. 30, 4-[[4-ethyl-5-(4-fluorophenyl)-1,2,4-triazol-3-yl]sulfanyl]benzenecarbohydroxamic acid], for which the concentration for half-maximal inhibition (IC50) in data set [1] came to 0.025 µM. The “residual percentage in rat plasma” value in data set [2] is given as 49%. In addition, the “residual percentage in rat S9 fraction” value in data set [3] is given as 63%.

Turning to `O=C(NO)c1ccc(Cn2nnc(-c3ccc(Cl)cc3)n2)cc1` [comp. 31, 4-[[5-(4-chlorophenyl)tetrazol-2-yl]methyl]benzenecarbohydroxamic acid], in data set [1], the IC50 was found to be 0.014 µM. In addition, in data set [2], the “residual percentage in rat plasma” value is reported as 76%. For the same compound, the “residual percentage in rat S9 fraction” value in data set [3] worked out at 0%.

Consider `Cn1c(Sc2c(F)cc(C(=O)NO)cc2F)nnc1C1(c2cccc(F)c2)CCCC1` [comp. 102, 3,5-difluoro-4-[[5-[1-(3-fluorophenyl)cyclopentyl]-4-methyl-1,2,4-triazol-3-yl]sulfanyl]benzenecarbohydroxamic acid], for which, in data set [1], the IC50 is 0.033 µM. The “residual percentage in rat plasma” value in data set [2] was found to be 82%. Moreover, the “residual percentage in rat S9 fraction” value in data set [3] amounted to 16%.

As for `O=C(NO)c1ccc(Cc2nnc(-c3ccccc3)o2)cc1` [comp. 68, 4-[(5-phenyl-1,3,4-oxadiazol-2-yl)methyl]benzenecarbohydroxamic acid], in data set [1], the IC50 was found to be 0.004 µM. Moreover, the “residual percentage in rat plasma” value in data set [2] stood at 77%. Besides, in data set [3], the “residual percentage in rat S9 fraction” value worked out at 34%.

Regarding `COc1ccc(Cc2nc(Cc3ccc(C(=O)NO)cc3)n(-c3ccc(C(F)(F)F)cc3)n2)cc1OC` [comp. 44, 4-[[5-[(3,4-dimethoxyphenyl)methyl]-2-[4-(trifluoromethyl)phenyl]-1,2,4-triazol-3-yl]methyl]benzenecarbohydroxamic acid], the IC50 in data set [1] was 0.415 µM. The “residual percentage in rat plasma” value in data set [2] stood at 32%. Further, the “residual percentage in rat S9 fraction” value in data set [3] was found to be 87%.

Turning to `O=C(NO)c1ccc(Cn2nnc(-c3ccccn3)n2)cc1` [comp. 89, 4-[[5-(2-pyridyl)tetrazol-2-yl]methyl]benzenecarbohydroxamic acid], the IC50 in data set [1] was 0.009 µM. For the same compound, the “residual percentage in rat plasma” value in data set [2] was 70%. For the same compound, the “residual percentage in rat S9 fraction” value in data set [3] is reported as 97%.

On to `Cn1c(Sc2ccc(C(=O)NO)cc2)nnc1C1COc2ccccc2O1` (stereo not drawn) [comp. 83, 4-[[5-(2,3-dihydro-1,4-benzodioxin-3-yl)-4-methyl-1,2,4-triazol-3-yl]sulfanyl]benzenecarbohydroxamic acid], for which, in data set [1], the concentration for half-maximal inhibition (IC50) was 0.022 µM. For the same compound, the “residual percentage in rat plasma” value in data set [2] came out at 76%. Further, in data set [3], the “residual percentage in rat S9 fraction” value was 92%.

`O=C(NO)c1cc(F)c(Sc2nnc(N3CCOCC3)n2Cc2ccccc2)c(F)c1` [comp. 117, 4-[(4-benzyl-5-morpholino-1,2,4-triazol-3-yl)sulfanyl]-3,5-difluoro-benzenecarbohydroxamic acid]: in data set [1], the IC50 turned out to be 0.017 µM. In addition, the “residual percentage in rat plasma” value in data set [2] was found to be 82%. For the same compound, the “residual percentage in rat S9 fraction” value in data set [3] was 88%.

`O=C(NO)c1cc(F)c(Sc2nnc(N3CCCC3)n2Cc2ccco2)c(F)c1` [comp. 116, 3,5-difluoro-4-[[4-(2-furylmethyl)-5-pyrrolidin-1-yl-1,2,4-triazol-3-yl]sulfanyl]benzenecarbohydroxamic acid]: the IC50 in data set [1] was 0.025 µM. Also, in data set [2], the “residual percentage in rat plasma” value came out at 78%. For the same compound, in data set [3], the “residual percentage in rat S9 fraction” value stood at 65%.

As for `Cn1c(Sc2c(F)cc(C(=O)NO)cc2F)nnc1-c1sc2ncccc2c1N` [comp. 99, 4-[[5-(3-aminothieno[2,3-b]pyridin-2-yl)-4-methyl-1,2,4-triazol-3-yl]sulfanyl]-3,5-difluoro-benzenecarbohydroxamic acid], the 50% inhibitory concentration (IC50) in data set [1] turned out to be 0.007 µM. Moreover, the “residual percentage in rat plasma” value in data set [2] stood at 91%. Also, the “residual percentage in rat S9 fraction” value in data set [3] is on record as 108%.

On to `Cc1ccc(-c2cc(-c3nnc(Sc4ccc(C(=O)NO)cc4)n3C)c3ccccc3n2)cc1` [comp. 67, 4-[[4-methyl-5-[2-(p-tolyl)-4-quinolyl]-1,2,4-triazol-3-yl]sulfanyl]benzenecarbohydroxamic acid], for which the half-inhibitory concentration (IC50) in data set [1] is 0.07 µM. Moreover, the “residual percentage in rat plasma” value in data set [2] worked out at 101%. Further, the “residual percentage in rat S9 fraction” value in data set [3] was 44%.

In the case of `COc1ccc(Cc2nnc(Cc3ccc(C(=O)NO)cc3)o2)cc1OC` [comp. 45, 4-[[5-[(3,4-dimethoxyphenyl)methyl]-1,3,4-oxadiazol-2-yl]methyl]benzenecarbohydroxamic acid], in data set [1], the concentration for half-maximal inhibition (IC50) stood at 0.068 µM. Further, the “residual percentage in rat plasma” value in data set [2] amounted to 81%. Further, the “residual percentage in rat S9 fraction” value in data set [3] stood at 69%.

In the case of `O=C(NO)c1cc(F)c(Sc2nnc(-c3ccccn3)n2Cc2ccco2)c(F)c1` [comp. 140, 3,5-difluoro-4-[[4-(2-furylmethyl)-5-(2-pyridyl)-1,2,4-triazol-3-yl]sulfanyl]benzenecarbohydroxamic acid], the IC50 in data set [1] was 0.014 µM. For the same compound, the “residual percentage in rat plasma” value in data set [2] turned out to be 85%. Also, in data set [3], the “residual percentage in rat S9 fraction” value worked out at 12%.

As to `O=C(NO)c1cc(F)c(Sc2nnc(-c3cnccn3)n2Cc2ccco2)c(F)c1` [comp. 139, 3,5-difluoro-4-[[4-(2-furylmethyl)-5-pyrazin-2-yl-1,2,4-triazol-3-yl]sulfanyl]benzenecarbohydroxamic acid], the IC50 in data set [1] was 0.018 µM. The “residual percentage in rat plasma” value in data set [2] came to 90%. For the same compound, in data set [3], the “residual percentage in rat S9 fraction” value came out at 40%.

Consider `O=C(NO)c1cc(F)c(Sc2nnc(CN3CCCCC3)n2-c2ccc(F)cc2)c(F)c1` [comp. 115, 3,5-difluoro-4-[[4-(4-fluorophenyl)-5-(1-piperidylmethyl)-1,2,4-triazol-3-yl]sulfanyl]benzenecarbohydroxamic acid], for which, in data set [1], the concentration for half-maximal inhibition (IC50) turned out to be 0.122 µM. The “residual percentage in rat plasma” value in data set [2] worked out at 73%. Besides, in data set [3], the “residual percentage in rat S9 fraction” value turned out to be 57%.

For the compound `COc1ccc(-c2nc(Cc3ccc(C(=O)NO)cc3)no2)cc1OC` [comp. 49, 4-[[5-(3,4-dimethoxyphenyl)-1,2,4-oxadiazol-3-yl]methyl]benzenecarbohydroxamic acid], the IC50 in data set [1] amounted to 0.007 µM. The “residual percentage in rat plasma” value in data set [2] worked out at 82%. Further, the “residual percentage in rat S9 fraction” value in data set [3] was 57%.

Broadly, the IC50 is the point on the concentration scale where inhibition reaches its midpoint.
